Measured values from patent US8742124B2, “Amide derivatives bearing a cyclopropylaminoacarbonyl substituent useful as cytokine inhibitors” (AstraZeneca AB, priority 2003, dated 2014).

Assays:
[1] = target: T1, Human recombinant p38α (Homo sapiens, UniProt Q16539); assay: In vitro enzyme assay, p38α kinase inhibition; assay type: biochemical; details: activated p38α, Myelin Basic Protein substrate, 33P ATP
T1 construct: c-myc (N); 6His (N); made in house; host or cells: E. coli (PET vectors)
Description: The ability test compounds to inhibit the enzyme p38 kinase was assessed. Activity of the test compound against each of the p38α and […] isoforms of the enzyme was determined.
Human recombinant MKK6 (GenBank Accession Number G1209672) was isolated from Image clone 45578 (Genomics, 1996, 33, 151) and utilised to produce protein in the form of a GST fusion protein in a pGEX vector using analogous procedures to those disclosed by J. Han et al., Journal of Biological Chemistry, 1996, 271, 2886-2891. p38α (GenBank Accession Number G529039) and p38β (GenBank Accession Number G1469305) were isolated by PCR amplification of human lymphoblastoid cDNA (GenBank Accession Number GM1416) and human foetal brain cDNA [synthesised from mRNA (Clontech, catalogue no. 6525-1) using a Gibco superscript cDNA synthesis kit] respectively using oligonucleotides designed for the 5′ and 3′ ends of the human p38α and p38β genes using analogous procedures to those described by J. Han et al., Biochimica et Biophysica Acta, 1995, 1265, 224-227 and Y. Jiang et al., Journal of Biological Chemistry, 1996, 271, 17920-17926.
Both p38 protein isoforms were expressed in E. coli in PET vectors. Human recombinant p38α and p38β isoforms were produced as 5′ c-myc, 6His tagged proteins. Both MKK6 and the p38 proteins were purified using standard protocols: the GST MKK6 was purified using a glutathione sepharose column and the p38 proteins were purified using nickel chelate columns.
The p38 enzymes were activated prior to use by incubation with MKK6 for 3 hours at 30° C. The unactivated E. coli-expressed MKK6 retained sufficient activity to fully activate both isoforms of p38. For p38α, the activation incubate comprised p38α (50 μl of 10 mg/ml), MKK6 (5 μl of 12 mg/ml), ‘Kinase buffer’ [550 μl; pH 7.4 buffer comprising Tris HCl (50 mM), EGTA (0.1 mM), sodium orthovanadate (0.1 mM) and (1-mercaptoethanol (0.1%)], Mg [75 μl of 100 mM Mg(OCOCH3)2] and ATP (75 μl of 1 mM). The activation incubate for p38β was similar to the above except containing […] enzyme (82 μl at 3.05 mg/ml) and 518 μl “Kinase buffer”. p38α and p38β activation incubates were either used fresh or aliquoted and stored at −80° C.
The test compound was solubilised in DMSO (10 mM) and 1:3 serial dilutions in DMSO carried out in polypropylene plates (Costar 3365). Compound dilutions were then diluted 1:10 in “Kinase buffer” and 10 μl transferred to a microtiter assay plate (Costar 3596). Control wells contained 10 μl (1:10 dilution in kinase buffer) DMSO. ‘Kinase Assay Mix’ [[…]; comprising Myelin Basic Protein (Sigma M-1891; 0.5 ml of a 6.66 mg/ml solution in “Kinase buffer”), activated p38α enzyme (3.8 μl) and ‘Kinase Buffer’ (2.55 ml)] was then added. Control wells on each plate either contained the above “Kinase Assay Mix” (n=6 replicates) or contained “Kinase Assay Mix” in which the activated p38 enzyme was replaced by Kinase buffer (n=6 replicates). ‘Labelled ATP’ was then added to all wells […]; comprising 50 μM ATP, 5 μCi ^33P ATP (Amersham International cat. no. AH9968) and 50 mM Mg(OCOCH3)2]. For p38β, 23 μl activated p38β enzyme and “Kinase buffer” (2.53 ml) were included in the “Kinase Assay Mix”. The final concentration of test compound was 2.4 μM-0.001 μM (n=2 replicates). Microtiter plates were incubated at ambient temperature (with gentle agitation) for 60 minutes and the reaction stopped by addition of 20% trichloroacetic acid (TCA) (50 μl). The precipitate protein was captured onto filter plates (PerkinElmer 6005174) using a Packard Filtermate harvester (2% TCA wash) which was then dried overnight and 25 μl MICROSCINT O (Packard O6013611) added to each well. Plates were counted on a Top Count scintillation counter. Dose response curves were generated using an in house automated data analysis package and an Origin curve fitting package.

[2] = test system: TNFα production in human whole blood; assay: Human whole blood assay, inhibition of LPS-stimulated TNFα production; assay type: cell-based; details: LPS 10 μg/ml, 6 hours, TNFα by ELISA
Description: [formula] (ii) Human Whole Blood
The ability of a test compound to inhibit TNFα production was also assessed in a human whole blood assay. Human whole blood secretes TNFα when stimulated with LPS.
Heparinised (10 units/ml) human blood was obtained from volunteers. 160 μl whole blood was added to 96 well round-bottom plates (Corning 3799). Compounds were solubilised in DMSO at a concentration of 10 mM, diluted 1:100 in “culture medium” [RPMI 1640 medium (Sigma) containing 50 units/ml penicillin, 50 μg/ml streptomycin and 2 mM glutamine] and subsequently serial dilutions were made in culture medium containing 1% DMSO. 20 μl of each test concentration was added to appropriate wells (triplicate cultures)(final concentration dose range of 10 μM-0.0001 μM). 20 μl of RPMI culture medium containing 1% DMSO was added to control wells.
Plates were incubated for 30 minutes at 37° C. (humidified incubator), prior to addition of 20 μl LPS (final concentration 10 μg/ml). Culture medium was added to control wells. Six “LPS alone” and six “medium alone” controls were included on each plate. A known TNFα synthesis/secretion inhibitor was included in each test. Plates were incubated for 6 hours at 37° C. (humidified incubator). Plates were centrifuged (2000 rpm for 10 minutes) and 80 μl plasma removed and stored at −80° C. (Corning 3799 plates). TNFα levels were measured by ELISA using paired antibodies from R&D Systems (catalogue nos. MAB610 and BAF210).

T1 sequence (Q16539 whole entry): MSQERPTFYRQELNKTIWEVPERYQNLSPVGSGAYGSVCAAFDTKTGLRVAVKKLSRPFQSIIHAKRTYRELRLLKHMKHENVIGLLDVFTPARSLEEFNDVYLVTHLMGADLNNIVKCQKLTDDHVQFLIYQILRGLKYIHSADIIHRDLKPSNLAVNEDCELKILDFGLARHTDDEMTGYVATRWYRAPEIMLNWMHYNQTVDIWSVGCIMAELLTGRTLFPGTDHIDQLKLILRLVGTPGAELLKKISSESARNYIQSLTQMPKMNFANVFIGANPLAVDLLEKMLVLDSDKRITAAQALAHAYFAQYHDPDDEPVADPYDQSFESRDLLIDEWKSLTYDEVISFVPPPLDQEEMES

IC50 [1] | IC50 [2] | Structure (SMILES)
7 nM | 70 nM | Cc1ccc(C(=O)NC2CC2)cc1NC(=O)c1ccc(OCc2cscn2)c(F)c1 [5[ac], N-{5-[(cyclopropylamino)carbonyl]-2-methylphenyl}-3-fluoro-4-(1,3-thiazol-4-ylmethoxy)benzamide]
10 nM | 520 nM | Cc1ccc(C(=O)NC2CC2)cc1NC(=O)c1ccc(OCc2cn3ccccc3n2)cc1 [5[e], N-cyclopropyl-3-{[4-(imidazo[1,2-a]pyridin-2-ylmethoxy)benzoyl]amino}-4-methylbenzamide]
6 nM | 140 nM | Cc1ccc(C(=O)NC2CC2)cc1NC(=O)c1ccc(OCc2ccccn2)c(F)c1 [5[y], N-{5-[(cyclopropylamino)carbonyl]-2-methylphenyl}-3-fluoro-4-(pyridin-2-ylmethoxy)benzamide]
7 nM | 300 nM | Cc1nc(COc2ccc(C(=O)Nc3cc(C(=O)NC4CC4)ccc3C)cc2F)cs1 [5[z], N-{5-[(cyclopropylamino)carbonyl]-2-methylphenyl}-3-fluoro-4-[(2-methyl-1,3-thiazol-4-yl)methoxy]benzamide]
170 nM | 1700 nM | Cc1ccc(C(=O)NC2CC2)cc1NC(=O)c1cnc(OCc2nccs2)nc1 [23[a], N-{5-[(cyclopropylamino)carbonyl]-2-methylphenyl}-2-(1,3-thiazol-2-ylmethoxy)pyrimidine-5-carboxamide]
4400 nM | > 10000 nM | COc1ccc(C(=O)Nc2cc(C(=O)NC3CCC3)ccc2C)cc1OC [Comparator Compound X, N-cyclobutyl-3-(3,4-dimethoxybenzamido)-4-methylbenzamide, reference compound]
59 nM | 1800 nM | Cc1ccc(C(=O)NC2CC2)cc1NC(=O)c1ccc(OCc2ncccc2C)cc1 [Example 8, N-cyclopropyl-4-methyl-3-({4-[(3-methylpyridin-2-yl)methoxy]benzoyl}amino)benzamide]
